According to patent US20050003000A1, “Method for the formation of ibuprofen crystals” (priority 2001, published 2005):

Test: Powder dissolution / in vitro release rate of the pure active compound, phosphate buffer pH 7.4 USP XXIV, paddle process 100 rpm
Format: physicochemical
Details: for Amount released [%] after 2 min: Table 3, ibuprofen crystallized by displacement precipitation; for Rate of dissolution (in words) / Active compound dissolved after 5 min / Active compound dissolved after 8 min: 3 l scale crystallizate
Description: The measurements of the release rate was carried out according to USP XXIV.
• 1. 80 g of ibuprofen are dissolved in 100 ml of isopropanol at 40° C. Precipitation is then carried out by addition of ice water (450 ml/stirrer speed 50 rpm) during the course of 70 min. During this process cooling to 10° C. takes place. The crystals are recovered by filtration and dried in vacuo. […] 3.2 g of sucrose monolaurate are added as an additive. Precipitation is then carried out by addition of ice water (450 ml/stirrer speed 200 rpm) during the course of 70 min. During this process cooling to 10° C. takes place. The crystals are recovered by filtration, washed with ice water (3×50 ml) and dried in vacuo. […] 8 g of Tween®80 are added as an additive. Precipitation is then carried out by addition of ice water (450 ml/stirrer speed 200 rpm) during the course of 70 min. During this process cooling to 10° C. takes place. The crystals are recovered by filtration, washed with ice water (3×50 ml) and dried in vacuo. […] 80 g of ibuprofen are dissolved in 100 ml of isopropanol at 40° C. 3 g of sucrose monolaurate are added as an additive. Precipitation is then carried out by addition of ice water (450 ml/stirrer speed 200 rpm) during the course of 70 min; during this process, cooling to 10° C. takes place; the crystals are recovered by filtration, washed with ice water (3×150 ml) and dried in vacuo.

[1] = Table 1, ibuprofen powder, time 0 min
[2] = Table 1, ibuprofen powder, time 2 min
[3] = Table 1, ibuprofen powder, time 5 min
[4] = Table 1, ibuprofen powder, time 8 min
[5] = Table 1, ibuprofen powder, time 10 min
[6] = Table 1, ibuprofen powder, time 15 min
[7] = Table 1, ibuprofen powder, time 20 min
[8] = Table 2, ibuprofen powder, time 0
[9] = Table 2, ibuprofen powder, time 2
[10] = Table 2, ibuprofen powder, time 5
[11] = Table 2, ibuprofen powder, time 8
[12] = Table 2, ibuprofen powder, time 10
[13] = Table 2, ibuprofen powder, time 15
[14] = Table 2, ibuprofen powder, time 20
[15] = powder dissolution, pure active compound, phosphate buffer pH 7.4 USP XXIV

CC(C)Cc1ccc(C(C)C(=O)O)cc1 (stereo not drawn) [Additive: sucrose monolaurate, ibuprofen]
Amount released [%] [1]: 0.0% | Amount released [%] [2]: 85.2% | Amount released [%] [3]: 98.8% | Amount released [%] [4]: 100.0% | Amount released [%] [5]: 100.0% | Amount released [%] [6]: 100.0% | Amount released [%] [7]: 100.0% | Amount released [%] [8]: 0.0% | Amount released [%] [9]: 85.9% | Amount released [%] [10]: 98.4% | Amount released [%] [11]: 99.5% | Amount released [%] [12]: 99.9% | Amount released [%] [13]: 100.7% | Amount released [%] [14]: 100.6% | Amount released [%] after 2 min: 85.2%

CC(C)Cc1ccc(C(C)C(=O)O)cc1 (stereo not drawn) [Commercial article, ibuprofen]
Amount released [%] [1]: 0.0% | Amount released [%] [2]: 15.1% | Amount released [%] [3]: 36.9% | Amount released [%] [4]: 59.5% | Amount released [%] [5]: 73.9% | Amount released [%] [6]: 98.0% | Amount released [%] [7]: 99.0% | Amount released [%] [8]: 0.0% | Amount released [%] [9]: 15.1% | Amount released [%] [10]: 36.9% | Amount released [%] [11]: 59.5% | Amount released [%] [12]: 73.9% | Amount released [%] [13]: 98.0% | Amount released [%] [14]: 99.0% | Amount released [%] after 2 min: 15.1% | Time after which a 100% release / dissolution is seen [15]: > 15 min | Release / dissolution within (after) 2 minutes [15]: < 20%

CC(C)Cc1ccc(C(C)C(=O)O)cc1 (stereo not drawn) [Example 1, ibuprofen]
Time after which a 100% release / dissolution is seen [15]: 15 min

COc1ccc2cc([C@H](C)C(=O)O)ccc2c1 [Example 2, naproxen]
Time after which a 100% release is seen [15]: 15 s

CC(C)Cc1ccc(C(C)C(=O)O)cc1 (stereo not drawn) [Example 4, ibuprofen]
Time after which a 100% release / dissolution is seen [15]: 5 min | Release / dissolution within (after) 2 minutes [15]: 85%

CC(C)Cc1ccc(C(C)C(=O)O)cc1 (stereo not drawn) [Example 5, ibuprofen]
Time after which a 100% release / dissolution is seen [15]: 5 min | Release / dissolution within (after) 2 minutes [15]: 85%

CC(C)Cc1ccc(C(C)C(=O)O)cc1 (stereo not drawn) [Example 6, ibuprofen]
Time after which a 100% release / dissolution is seen [15]: 5 min | Release / dissolution within (after) 2 minutes [15]: 85%

CC(C)Cc1ccc(C(C)C(=O)O)cc1 (stereo not drawn) [Example 7, ibuprofen]
Time after which a 100% release / dissolution is seen [15]: 5 min | Release / dissolution within (after) 2 minutes [15]: 85%

CC(C)Cc1ccc(C(C)C(=O)O)cc1 (stereo not drawn) [Example 11, ibuprofen]
Rate of dissolution (in words): comparatively good rate of dissolution | Active compound dissolved after 5 min: 81% | Active compound dissolved after 8 min: 90%

CC(C)Cc1ccc(C(C)C(=O)O)cc1 (stereo not drawn) [Example 12, ibuprofen]
Rate of dissolution (in words): good rate of dissolution | Active compound dissolved after 5 min: 87% | Active compound dissolved after 8 min: 95%

CC(C)Cc1ccc(C(C)C(=O)O)cc1 (stereo not drawn) [Example 13, ibuprofen]
Rate of dissolution (in words): good rate of dissolution | Active compound dissolved after 5 min: 92% | Active compound dissolved after 8 min: 100%

CC(C)Cc1ccc(C(C)C(=O)O)cc1 (stereo not drawn) [Example 14, ibuprofen]
Rate of dissolution (in words): good rate of dissolution

CC(C)Cc1ccc(C(C)C(=O)O)cc1 (stereo not drawn) [Example 15, ibuprofen]
Rate of dissolution (in words): good rate of dissolution

CC(C)Cc1ccc(C(C)C(=O)O)cc1 (stereo not drawn) [Example 18, ibuprofen]
Time after which a 100% release / dissolution is seen [15]: approximately 5 min

CC(C)Cc1ccc(C(C)C(=O)O)cc1 (stereo not drawn) [Solvent change without addition, ibuprofen]
Amount released [%] [1]: 0.0% | Amount released [%] [2]: 20.9% | Amount released [%] [3]: 48.9% | Amount released [%] [4]: 67.2% | Amount released [%] [5]: 76.5% | Amount released [%] [6]: 94.3% | Amount released [%] [7]: 100.0%

CC(C)Cc1ccc(C(C)C(=O)O)cc1 (stereo not drawn) [Suc. monolaurate + HPC, ibuprofen]
Amount released [%] after 2 min: 100.8%

CC(C)Cc1ccc(C(C)C(=O)O)cc1 (stereo not drawn) [Suc. monolaurate + Klucel ® LF, ibuprofen]
Amount released [%] after 2 min: 98.9%

CC(C)Cc1ccc(C(C)C(=O)O)cc1 (stereo not drawn) [Suc. monolaurate + Kollicoat ® IR, ibuprofen]
Amount released [%] after 2 min: 97.8%

CC(C)Cc1ccc(C(C)C(=O)O)cc1 (stereo not drawn) [Suc. monolaurate + dextran 200, ibuprofen]
Amount released [%] after 2 min: 100.4%

CC(C)Cc1ccc(C(C)C(=O)O)cc1 (stereo not drawn) [Suc. monolaurate + trehalose, ibuprofen]
Amount released [%] after 2 min: 100.1%
